According to patent publication US20030114383A1, “Calcitonin-like sequence expressed by gonadotropes of the anterior pituitary” (priority 2001, published 2003):
Bridges are numbered along the chain shown (N, C = ends). Where no end group is shown, it is not given here.

B1: Pit-CT: anterior pituitary-derived peptide with sequence homology to calcitonin; mature peptide SEQ. ID No. 3 and No. 4 (protein)
chain: QDQESPLRKHCLAPSGSPQAELQGTAHQEGIMGFLKFSPFLVVSILLLYQACSLQAVPLRSILGSSPGMATLSEEVRLLAAALVQDYMGMKPRELEQEEEQEAEGSSLDSPRSKRCGNLTTCMLGTYTQDLDLFHTFPQTSIGVEALGGEKGCGQGLGDLPPIPFWQLSSSFSPF
modifications: left off: small tags and cut ends

Legend:
perifused rat AP cells = details: exogenously added; cited from earlier work
lactotrope = details: rats; cited from earlier work
GGH3 cells = test: Two-tier co-culture of CT transfectants with GGH3 cells: PRL release by RIA; assay type: cell-based, rat; details: summary statement
Experimental: Levels of CTI and PRL in the conditioned media of LβT2 cells and CT-transfectants were determined by radioimmunoassay (RIA). The PRL RIA used the reagents provided by the National Institute of Diabetes, Digestive and Kidney diseases (NIDDK), and the assay protocol recommended by the NIDDK was followed. CTI was determined as described previously. All samples from this series of experiments were concurrently run in duplicate in the same RIA. Protein A (IgG Sorb) was used for the separation of bound from free hormone antigen. The experiments were repeated at least three separate times, and data from all the experiments were pooled for statistical analysis.
To further examine the role of pituitary-derived CT in lactotrope function, a two-tier co-culture system was developed where b 1×10^5 LβT2 cells or CT transfectants (CT.U6/A or CT.U6/B) are cultured separately in an upper chamber insert, whereas 2×10^5 GGH3 cells per well (target cells) are cultured in a 12-well plate. […] The conditioned media were analyzed for PRL by RIA. […]
The results on PRL release are expressed as ng PRL released by 100,000 cells over 24 hours. The results on PRL mRNA were digitized, normalized with β-actin mRNA and expressed as normalized densitometric units. […]

Molecule | PRL release from perifused rat AP cells (perifused rat AP cells) | Secretion of GH, FSH, LH or TSH from perifused rat AP cells (perifused rat AP cells) | Inhibition of PRL gene transcription and lactotrope cell proliferation (lactotrope) | Inhibition of prolactin secretion by the pituitary of rats (GGH3 cells)
salmon calcitonin (CSNLSTCVLGKLSQELHKLQTYPRTNTGSGTP-NH2; disulfide 1-7) [SCT, calcitonin-like peptide derived from salmon] | significantly attenuates | without altering | potent inhibitor | –
B1 | – | – | – | very potent inhibitor
